Test results taken from patent publication US11358977B2, “Deuterated pyridone amides and prodrugs thereof as modulators of sodium channels” (VERTEX PHARMACEUTICALS INCORPORATED, priority 2017, dated 2022).

How the values were obtained:
[1] = In vivo pharmacokinetic study, rat IV; design: species or system Male Sprague Dawley rats; conditions: male, Sprague Dawley, plasma, rat IV bolus, cassette, nominal 0.5 mg/kg
Protocol: General Procedures. Concentrations of the test compounds in plasma were determined using a high performance liquid chromatography/tandem mass spectrometry (HPLC/MS/MS) method. The test compounds along with the internal standard (IS) were extracted from plasma (20 μL) by direct protein precipitation with acetonitrile (1:25 ratio of plasma/acetonitrile). After centrifugation, the supernatant extract (10 μL) was injected onto the LC/MS/MS system. The HPLC system included a Phenomenex Luna C8 column, 3 micron, 2 mm diameter×30 mm long eluted with a gradient mobile phase consisting of 0.1% formic acid in water or in acetonitrile. The analytes were detected by MS/MS with Electrospray Ionization (ESI) in the mode of multiple reaction monitoring (MRM). The lower limit of quantitation (LLOQ) was 1.00 ng/mL. The linear range of the assay was from 1 to 3000 ng/mL. The assay accuracy was within 20% of the nominal values.
Plasma concentration-time profiles of the test compounds were analyzed by noncompartmental pharmacokinetic methods using PK module in Watson, Version 7.4.2 (Thermo Scientific). Pharmacokinetic parameters including AUCa11, AUC0-∞, C0, Cl, Vss and t1/2 were determined.
Descriptive statistical data of plasma concentrations and pharmacokinetic parameter estimates were calculated, including the mean, standard deviation (SD), and coefficient of variation (% CV) using Microsoft Excel 2010.
Rat IV Study. Compounds 7 and 10 were administered simultaneously in a single intravenous bolus to Male Sprague Dawley rats (n=3) via jugular cannula. The nominal dose of each compound was 0.5 mg/kg. The cassette dosing solution was formulated in D5W with additives Animals had free access to food and water before and after dosing. Blood samples (approximately 0.25 mL each) were collected via a carotid artery catheter prior to dosing and at 0 (predose), 5 min, 10 min, 0.25, 0.5, 1, 2, 4, 8, 12, 24 hours post dose. Each blood sample was collected into a tube that was kept on wet ice and contained potassium EDTA as the anticoagulant. Plasma was separated and stored at approximately −70° C. until analysis.
Plasma samples and dosing solutions were analyzed using a liquid chromatography/tandem mass spectrometry (LC/MS/MS) method to determine the concentrations of Compounds 7 and 10 with a lower limit of quantitation (LLOQ) of 1.00 ng/mL. The average plasma concentrations of Compounds 7 and 10 are plotted in FIG. 5 and are also presented in tabular form in Table 5.
Plasma concentration vs. time data were subjected to noncompartmental pharmacokinetic (PK) analysis. To determined the measured dose of each compound, the dose formulation (50 μL) was aliquoted into a cluster tube at the time of dosing. Then 450 μL of DMSO was added to the tube to dilute it 10×. Then the diluted dosing solution was spiked into rat blank plasma with 100× dilution. The resulting plasma sample was analyzed along with the plasma samples collected from rats that were dosed with the compounds, using the same LC/MS/MS method.

[2] = In vitro microsomal metabolic stability assay, monkey; format: in vitro ADME; conditions: monkey liver microsomes 0.25 mg/mL, 1.0 μM compound, NADPH
Protocol: (§1) Materials. Rat, Dog, Monkey and Human liver microsomes (20 mg/mL) were obtained from Xenotech, LLC (Lenexa, Kans.). P-nicotinamide adenine dinucleotide phosphate, reduced form (NADPH), magnesium chloride (MgCl2), and dimethyl sulfoxide (DMSO) were purchased from Sigma-Aldrich.
(§2) Methods. […] The 10 mM stock solutions were diluted to 100 μM in DMSO. In each cluster polypropylene tube, 190.7 μL of 100 mM phosphate buffer, pH 7.4 was added, then 2.5 μL of liver mocrosomes (20 mg/mL, rat, dog, monkey or human) was added, then a 2 μL aliquot of the 100 μM test compound was added, and the mixture was pre-warmed for 10 minutes. Reactions were initiated by addition of 4.8 μL of pre-warmed NADPH solution (100 mM in 100 mM phosphate buffer). The final reaction volume was 200 μL and contained 0.25 mg/mL rat, dog, monkey or human liver microsomes, 1.0 μM test compound, and 2.4 mM NADPH in 0.1 M potassium phosphate buffer, pH 7.4. The reaction mixtures were incubated at 37° C., and the reactions were quenched at 0, 15, 30 and 60 minutes by adding 200 μL of ice-cold quench solution (ACN:MeOH:0.1% formic acid in water 2:2:1) containing internal standard, n=3 per time point. The tubes were centrifuged and supernatants were analyzed for amounts of the test compound remaining by LC-MS/MS. The HPLC system included a Phenomenex Luna C8 column, 3 micron, 2 mm diameter×30 mm long eluted with a gradient mobile phase consisting of 0.1% formic acid in water or in acetonitrile. The analytes were detected by MS/MS with Electrospray Ionization (ESI) in the mode of multiple reaction monitoring (MRM). The injection volume was 10 μL.

[3] = In vitro microsomal metabolic stability assay, human; format: in vitro ADME; conditions: human liver microsomes 0.25 mg/mL, 1.0 μM compound, NADPH
Protocol: as §1, §2

[4] = In vitro microsomal metabolic stability assay, dog; format: in vitro ADME; conditions: dog liver microsomes 0.25 mg/mL, 1.0 μM compound, NADPH
Protocol: as §1, §2

[5] = In vitro microsomal metabolic stability assay, rat; format: in vitro ADME; conditions: rat liver microsomes 0.25 mg/mL, 1.0 μM compound, NADPH
Protocol: as §1, §2

human NaV 1.8 = molecular target: T1, human NaV 1.8 (Homo sapiens, UniProt Q9Y5Y9); experiment: E-VIPR assay for NaV inhibition; format: cell-based; conditions: HEK cells expressing human NaV 1.8, E-VIPR
T1 construct: expressed in transfected cells; host or cells: HEK cells, grown under blasticidin selection; KIR2.1 BacMam virus added before seeding
T1 sequence (Q9Y5Y9 whole entry): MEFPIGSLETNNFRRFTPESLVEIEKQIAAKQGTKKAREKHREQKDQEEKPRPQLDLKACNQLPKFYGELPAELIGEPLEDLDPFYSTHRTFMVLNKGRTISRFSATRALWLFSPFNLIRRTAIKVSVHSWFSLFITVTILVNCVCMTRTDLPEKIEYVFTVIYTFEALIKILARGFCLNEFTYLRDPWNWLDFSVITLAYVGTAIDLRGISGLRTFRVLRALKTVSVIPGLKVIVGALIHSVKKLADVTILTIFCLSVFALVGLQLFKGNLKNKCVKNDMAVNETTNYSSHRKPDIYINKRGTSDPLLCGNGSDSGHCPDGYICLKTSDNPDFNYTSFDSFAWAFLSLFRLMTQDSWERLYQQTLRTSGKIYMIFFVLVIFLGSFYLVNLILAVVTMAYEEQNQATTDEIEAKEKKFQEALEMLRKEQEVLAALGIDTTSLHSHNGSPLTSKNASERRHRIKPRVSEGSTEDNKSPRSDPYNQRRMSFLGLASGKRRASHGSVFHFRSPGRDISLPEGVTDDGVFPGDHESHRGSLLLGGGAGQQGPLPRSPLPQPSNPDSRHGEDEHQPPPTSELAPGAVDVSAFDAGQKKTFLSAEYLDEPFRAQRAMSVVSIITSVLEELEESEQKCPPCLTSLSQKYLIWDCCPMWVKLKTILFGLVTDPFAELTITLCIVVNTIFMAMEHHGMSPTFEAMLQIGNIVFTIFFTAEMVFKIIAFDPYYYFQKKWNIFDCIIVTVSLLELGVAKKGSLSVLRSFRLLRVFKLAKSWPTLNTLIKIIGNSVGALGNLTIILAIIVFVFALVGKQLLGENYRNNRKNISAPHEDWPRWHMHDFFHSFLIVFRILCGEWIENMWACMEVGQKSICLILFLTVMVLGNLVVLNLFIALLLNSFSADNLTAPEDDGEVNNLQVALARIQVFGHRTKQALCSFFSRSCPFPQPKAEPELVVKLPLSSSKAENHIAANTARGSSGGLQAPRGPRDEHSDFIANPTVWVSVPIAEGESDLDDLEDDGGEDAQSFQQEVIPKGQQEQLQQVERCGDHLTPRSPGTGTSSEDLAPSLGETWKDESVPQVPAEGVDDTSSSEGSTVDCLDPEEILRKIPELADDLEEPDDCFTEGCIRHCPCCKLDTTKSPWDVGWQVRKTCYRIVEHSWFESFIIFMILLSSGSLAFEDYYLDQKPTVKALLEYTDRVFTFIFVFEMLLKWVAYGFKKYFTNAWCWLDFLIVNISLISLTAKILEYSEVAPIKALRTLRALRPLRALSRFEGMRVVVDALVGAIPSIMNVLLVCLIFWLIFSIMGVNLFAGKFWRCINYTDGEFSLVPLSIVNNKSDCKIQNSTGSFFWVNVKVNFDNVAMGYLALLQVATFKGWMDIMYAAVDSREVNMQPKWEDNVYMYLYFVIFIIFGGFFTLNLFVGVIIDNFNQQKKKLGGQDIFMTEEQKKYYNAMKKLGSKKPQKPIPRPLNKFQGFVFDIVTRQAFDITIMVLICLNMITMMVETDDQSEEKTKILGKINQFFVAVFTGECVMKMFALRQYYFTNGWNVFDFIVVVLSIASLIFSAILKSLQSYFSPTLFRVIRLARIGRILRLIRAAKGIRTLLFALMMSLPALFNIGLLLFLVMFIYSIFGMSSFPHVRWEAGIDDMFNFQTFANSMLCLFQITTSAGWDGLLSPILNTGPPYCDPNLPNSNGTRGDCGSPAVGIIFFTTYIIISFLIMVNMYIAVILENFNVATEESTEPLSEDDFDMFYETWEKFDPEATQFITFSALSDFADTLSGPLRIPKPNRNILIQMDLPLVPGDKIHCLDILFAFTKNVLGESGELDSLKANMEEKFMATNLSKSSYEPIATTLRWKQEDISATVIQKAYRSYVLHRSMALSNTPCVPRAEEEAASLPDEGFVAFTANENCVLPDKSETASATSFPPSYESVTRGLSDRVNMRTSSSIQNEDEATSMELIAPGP
Text: Sodium ion channels are voltage-dependent proteins that can be activated by inducing membrane voltage changes by applying electric fields. […] The instrument comprises a microtiter plate handler, an optical system for exciting the coumarin dye while simultaneously recording the coumarin and oxonol emissions, a waveform generator, a current- or voltage-controlled amplifier, and parallel electrode pairs that are inserted into assay plate wells. Under integrated computer control, this instrument passes user-programmed electrical stimulus protocols to cells within the wells of the microtiter plate.
The solution was made by adding 10% Pluronic F127 stock equal to combined volumes of CC2-DMPE and DiSBAC6(3).
Then 25 μL per well from compound plate was transferred to each cell plate.
A pre-stimulus recording was performed for 0.5 seconds to obtain the un-stimulated intensities baseline. The stimulatory waveform was followed by 0.5 seconds of post-stimulation recording to examine the relaxation to the resting state.

[6] = In vitro hepatocyte assay: prodrug conversion to parent compound; format: in vitro ADME, human; conditions: for half-life at 0.25 µM: cryopreserved human hepatocytes in suspension, cryopreserved human hepatocytes 0.625 million cells/mL, 37° C., Compounds 20 and 13 co-incubated, read-out: t1/2 in human hepatocytes; for conversion of prodrug to parent compound / % remaining: human hepatocytes; for conversion of prodrug to parent compound: LC-MS/MS, Compound 20 to Compound 10, Compound 13 to Compound 7
Protocol: Materials. Cryopreserved human hepatocytes and Cryopreserved Hepatocytes Recovery Medium (CHRM™) were purchased from Life Technologies (Carlsbad, Calif.). Gibco™ Leibovitz's L-15 Medium was purchased from Fisher Scientific (Waltham, Mass.).
Methods. 10 mM stock solutions containing Compound 20 and Compound 13 were prepared in DMSO. Equal volumes of the two 10 mM stock solutions were mixed to form a combination stock solution containing Compound 20 and Compound 13 in concentrations of 5 mM each. The 5 mM combination stock solution was diluted to a concentration of 50 μM of each compound in DMSO (“50 μM combination stock”). Cryopreserved human hepatocytes were thawed in CHRM™ medium and prepared as a suspension in incubation medium (L-15 Medium with supplements containing glucose, HEPES buffer and NaHCO3), with the final cell concentration of 0.625 million cells/mL. In a 48 well plate, 1 μL of the 50 μM combination stock and then 199 μL of hepatocyte suspension (0.625 million cells/mL) were added to each well. The plate was covered and incubated at 37° C. in an incubator with gentle shaking (50 rpm). The reactions were quenched at 0, 0.25, 0.5, 1 and 2 hours by adding 200 μL of ice-cold quench solution (ACN:MeOH:0.1% aqueous formic acid, 2:2:1) containing internal standard (n=3 per time point). […] LC-MS/MS analysis was conducted using a Phenomenex Luna C8 column (3 micron, 2 mm diameter×30 mm long, at room temperature) eluted with a gradient consisting of mobile phases of 0.1% formic acid in water and 0.1% formic acid in acetonitrile at a total flow rate of 0.6 mL/min and a total run time of 4.5 minutes. The analytes were detected by MS/MS with Electrospray Ionization (ESI) in the mode of multiple reaction monitoring (MRM). The injection volume was 10 μL.

`Cc1cc(F)ccc1Oc1cc(C(F)(F)F)ccc1C(=O)Nc1cc[nH]c(=O)c1` [Compound 10, 2-(4-fluoro-2-methylphenoxy)-N-(2-oxo-1,2-dihydropyridin-4-yl)-4-(trifluoromethyl)benzamide, reference compound] showed a concentration at 0.083 h ([1]; 0.083 hours) of 391 ng/mL, a concentration at 0.167 h ([1]; 0.167 hours) of 349 ng/mL and a concentration at 0.25 h ([1]; 0.25 hours) of 316 ng/mL. The concentration at 0.5 h ([1]; 0.5 hours) was 239 ng/mL, the concentration at 1 h ([1]; 1 hour) was 174 ng/mL and the concentration at 2 h ([1]; 2 hours) was 111 ng/mL. For the same compound, the concentration at 4 h ([1]; 4 hours) was 51.6 ng/mL, the concentration at 8 h ([1]; 8 hours) was 14.3 ng/mL and the concentration at 12 h ([1]; 12 hours) was 4.27 ng/mL. It also gave an AUC ([1]; noncompartmental analysis) of 415 ng·h/mL, an AUC(0-inf) ([1]; noncompartmental analysis) of 422 ng·h/mL and a C0 ([1]; noncompartmental analysis) of 245 ng/mL. It also gave a clearance ([1]; noncompartmental analysis) of 22.1 mL/min/kg, a half-life ([1]; noncompartmental analysis) of 132 min and a Vd ([1]; noncompartmental analysis, read-out: Vss) of 3.4 L/kg. The “% remaining” value ([2]; 0 min) was 100%, the “% remaining” value ([2]; 15 min) was 96.4% and the “% remaining” value ([2]; 30 min) was 92.4%. For the same compound, the “% remaining” value ([2]; 60 min) was 91.4%, the “% remaining” value ([3]; 0 min) was 100% and the “% remaining” value ([3]; 15 min) was 110%. For the same compound, the “% remaining” value ([3]; 30 min) was 105%, the “% remaining” value ([3]; 60 min) was 106% and the “% remaining” value ([4]; 0 min) was 100%. The “% remaining” value ([4]; 15 min) was 85.9%, the “% remaining” value ([4]; 30 min) was 85.4% and the “% remaining” value ([4]; 60 min) was 85.7%. The “% remaining” value ([5]; 0 min) was 100%, the “% remaining” value ([5]; 15 min) was 108% and the “% remaining” value ([5]; 30 min) was 102%. The “% remaining” value ([5]; 60 min) was 87.4%.

For `[2H]C([2H])([2H])c1cc(F)ccc1Oc1cc(C(F)(F)F)ccc1C(=O)Nc1ccn(COP(=O)(O)O)c(=O)c1` [Compound 13, (4-(2-(4-fluoro-2-(methyl-d3)phenoxy)-4-(trifluoromethyl)benzamido)-2-oxopyridin-1(2H)-yl)methyl dihydrogen phosphate], the IC50 (human NaV 1.8; 11 point dose response, top dose 3 μM, read-out: Nav1.8 IC50) was 1200 nM, the “Nav1.8 Max % Activity” value (human NaV 1.8; normalised to positive control 25 μM) was 99% and the half-life at 0.25 µM [6] was less than 30 min. The “conversion of prodrug to parent compound” value [6] was “fast conversion”, the “% remaining” value ([6]; time 0 hr) was 100% and the “% remaining” value ([6]; time 0.25 hr) was 73.8%. The “% remaining” value ([6]; time 0.5 hr) was 33.2%, the “% remaining” value ([6]; time 1 hr) was 11.1% and the “% remaining” value ([6]; time 2 hr) was 11.8%.

For `Cc1cc(F)ccc1Oc1cc(C(F)(F)F)ccc1C(=O)Nc1ccn(COP(=O)(O)O)c(=O)c1` [Compound 20, (4-(2-(4-fluoro-2-methylphenoxy)-4-(trifluoromethyl)benzamido)-2-oxopyridin-1(2H)-yl)methyl dihydrogen phosphate, reference compound], the half-life at 0.25 µM [6] was less than 30 min, the “conversion of prodrug to parent compound” value [6] was “fast conversion” and the “% remaining” value ([6]; time 0 hr) was 100%. The “% remaining” value ([6]; time 0.25 hr) was 75.1%, the “% remaining” value ([6]; time 0.5 hr) was 32.7% and the “% remaining” value ([6]; time 1 hr) was 11.2%. For the same compound, the “% remaining” value ([6]; time 2 hr) was 11.6%.
